One assay deals with NF-κB pathway. The assay is described as follows: Reporter gene expression assay for NFκB axis in THP1-Dual cells (secreted SEAP). It counts as cell-based, human. The note with it: Homo sapiens, THP1-Dual, 20 h, 20 hr stimulation, QUANTI-Blue SEAP, EC50 range, read-out: THP-NFKB activity. The procedure, abridged: (§1)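 THP1-Dual cells (THP-1 monocytes with inducible NF-κB-SEAP and IRF-Lucia reporters; 5×10^5 cells) were stimulated with compounds for 20 hr. Secreted SEAP (QUANTI-Blue) and Lucia luciferase (QUANTI-Luc) were then measured in the supernatant. EC50 values are reported as ranges.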
(In general: In a reporter assay the amount or activity of a reporter protein is the signal.)

A further assay has as its target T1, WT/R232 STING protein (Homo sapiens, UniProt Q86WV6, H232R).
T1 construct: host or cells: HEK293T
As to the kind of experiment: Luciferase reporter assay in HEK293T-hSTING-Luciferase cells (R232). It counts as cell-based. The following applies: 20 hr stimulation, EC50 range. An outline of the steps:
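Readout is fold-induction over baseline of secreted luciferase, measured by luminescence after 20 hr compound stimulation. Cells: clonally selected HEK293T stably carrying hSTING (R232) and a luciferase reporter under five tandem ISREs fused to an ISG54 minimal promoter.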

The next assay concerns the target T2, hSTING (HAQ) (Homo sapiens, UniProt Q86WV6, G230A/H232R/R293Q/R71H).
T2 construct: host or cells: HEK293T
The assay is described as follows: Luciferase reporter assay in HEK293T-hSTING-Luciferase cells (HAQ polymorph). The class given is cell-based. The note with it: EC50 range. The procedure, abridged: (§2)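 Clonal HEK293T lines stably expressing the hSTING variant (H232 or HAQ) plus an ISRE/ISG54-driven secreted luciferase reporter were stimulated with compounds for 20 hr. Supernatant luciferase measured by luminescence (Quanti-Luc).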

Another assay deals with IRF pathway. The assay is described as follows: Reporter gene expression assay for IRF axis in THP1-Dual cells (secreted Lucia luciferase). The note with it: Homo sapiens, THP1-Dual, 20 h, 20 hr stimulation, QUANTI-Luc, EC50 range, read-out: THP-IRF activity. The class given is cell-based, human. An outline of the steps:
as §1

The next assay concerns the target T3, hSTING (H232) (Homo sapiens, UniProt Q86WV6).
T3 construct: host or cells: HEK293T
The assay is described as follows: Luciferase reporter assay in HEK293T-hSTING-Luciferase cells (H232/REF polymorph). It counts as cell-based. The following applies: EC50 range. An outline of the steps:
as §2

A value given as a limit tells only on which side of the number the result lay.

T1 sequence (Q86WV6 whole entry H232R): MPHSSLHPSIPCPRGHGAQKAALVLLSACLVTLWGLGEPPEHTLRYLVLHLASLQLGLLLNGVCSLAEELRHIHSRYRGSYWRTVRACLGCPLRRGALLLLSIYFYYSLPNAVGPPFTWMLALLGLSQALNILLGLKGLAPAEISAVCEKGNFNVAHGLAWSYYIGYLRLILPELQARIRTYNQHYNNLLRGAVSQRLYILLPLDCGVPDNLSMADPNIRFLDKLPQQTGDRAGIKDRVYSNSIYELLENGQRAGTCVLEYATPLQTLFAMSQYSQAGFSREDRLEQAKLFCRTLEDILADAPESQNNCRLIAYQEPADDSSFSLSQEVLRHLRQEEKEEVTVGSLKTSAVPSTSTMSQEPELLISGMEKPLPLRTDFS
T2 sequence (Q86WV6 whole entry R71H/G230A/H232R/R293Q): as the sequence (Q86WV6 whole entry H232R) above, with R71H, G230A, R293Q counted along it
T3 sequence (Q86WV6 whole entry): as the sequence (Q86WV6 whole entry H232R) above, with R232H counted along it

Regarding `CC1(C)C(=O)N(Cc2noc3ccccc23)c2cc(C(=O)NCc3c(F)cc(F)cc3F)ccc21` [Example 98, 1-(benzo[d]isoxazol-3-ylmethyl)-3,3-dimethyl-2-oxo-N-(2,4,6-trifluorobenzyl)indoline-6-carboxamide], the EC50 was more than 10000 nM in the assay on NF-κB pathway; not above 1000 nM at WT/R232 STING protein; 1000 to 10000 nM at hSTING (HAQ); more than 10000 nM in the assay on IRF pathway; not above 1000 nM at hSTING (H232).

In the case of `Cc1cc(CN2C(=O)C(C)(C)c3ccc(C(=O)NCc4c(F)cc(F)cc4F)cc32)no1` [Example 70, 3,3-dimethyl-1-((5-methylisoxazol-3-yl)methyl)-2-oxo-N-(2,4,6-trifluorobenzyl)indoline-6-carboxamide], the EC50 is more than 10000 nM in the assay on NF-κB pathway; 1000 to 10000 nM at WT/R232 STING protein; 1000 to 10000 nM at hSTING (HAQ); more than 10000 nM in the assay on IRF pathway; 1000 to 10000 nM at hSTING (H232).

As for `Cc1cccc(CN2C(=O)C(C)(C)c3ccc(C(=O)NCc4c(F)cc(F)cc4F)cc32)c1` [Example 18, 3,3-dimethyl-1-(3-methylbenzyl)-2-oxo-N-(2,4,6-trifluorobenzyl)indoline-6-carboxamide], the EC50 was 1000 to 10000 nM with NF-κB pathway; not above 1000 nM on WT/R232 STING protein; 1000 to 10000 nM at hSTING (HAQ); more than 10000 nM in the assay with IRF pathway; 1000 to 10000 nM at hSTING (H232).

With `COc1cc(F)cc(CN2C(=O)C(C)(C)c3ccc(C(=O)NCc4c(F)cc(F)cc4F)cc32)c1` [Example 89, 1-(3-fluoro-5-methoxybenzyl)-3,3-dimethyl-2-oxo-N-(2,4,6-trifluorobenzyl)indoline-6-carboxamide], the EC50 is 1000 to 10000 nM with NF-κB pathway; not above 1000 nM at WT/R232 STING protein; not above 1000 nM on hSTING (HAQ); 1000 to 10000 nM in the assay on IRF pathway; not above 1000 nM on hSTING (H232).

As for `CC1(C)C(=O)N(Cc2cc(F)cc(F)c2)c2nc(C(=O)NCc3ccccc3)ccc21` [Example 191, N-benzyl-1-(3,5-difluorobenzyl)-3,3-dimethyl-2-oxo-2,3-dihydro-1H-pyrrolo[2,3-b]pyridine-6-carboxamide], the EC50 in the assay with NF-κB pathway was more than 10000 nM; at WT/R232 STING protein it was 1000 to 10000 nM; at hSTING (HAQ), 1000 to 10000 nM; in the assay on IRF pathway it was more than 10000 nM; at hSTING (H232) it was 1000 to 10000 nM.

Take `CC1(C)C(=O)N(Cc2c(F)cccc2Cl)c2cc(C(=O)NCc3c(F)cccc3F)ccc21` [Example 27, 1-(2-chloro-6-fluorobenzyl)-N-(2,6-difluorobenzyl)-3,3-dimethyl-2-oxoindoline-6-carboxamide]: the EC50 in the assay on NF-κB pathway is 1000 to 10000 nM; on WT/R232 STING protein it was not above 1000 nM; at hSTING (HAQ) it was not above 1000 nM; in the assay with IRF pathway, 1000 to 10000 nM; on hSTING (H232), 1000 to 10000 nM.

For `CC1(C)C(=O)N(Cc2c(F)cccc2Cl)c2cc(C(=O)NCc3ccc(F)cc3F)ccc21` [Example 26, 1-(2-chloro-6-fluorobenzyl)-N-(2,4-difluorobenzyl)-3,3-dimethyl-2-oxoindoline-6-carboxamide], the EC50 is 1000 to 10000 nM with NF-κB pathway; not above 1000 nM on WT/R232 STING protein; not above 1000 nM on hSTING (HAQ); 1000 to 10000 nM in the assay with IRF pathway; not above 1000 nM at hSTING (H232).

As for `CC1(C)C(=O)N(Cc2c(F)cccc2Br)c2cc(C(=O)NCc3c(F)cc(F)cc3F)ccc21` [Example 108, 1-(2-bromo-6-fluorobenzyl)-3,3-dimethyl-2-oxo-N-(2,4,6-trifluorobenzyl)indoline-6-carboxamide], the EC50 with NF-κB pathway was more than 10000 nM; at WT/R232 STING protein, not above 1000 nM; on hSTING (HAQ) it was more than 10000 nM; with IRF pathway, more than 10000 nM; on hSTING (H232), more than 10000 nM.
